The target of this assay is T1, Kv7.2/7.3 (Homo sapiens, UniProt O43525+O43526).
T1 construct: Kv7.2 tetracycline-induced, Kv7.3 constitutive
The assay can be described thus: Kv7.2/7.3 Activation Assay (Thallium Flux Assay). It counts as cell-based. The following applies: hKV7.2/7.3 cell line; test compound at single concentration of 10 μM; fluorescence at 90 sec normalized to positive control (retigabine, 30 μM). The source says:
The Thallium Flux Assay is used as a surrogate indicator of potassium channel activity.
The experimental protocol was adapted from the FluxOR™ II Green Potassium Ion Channel Assay User Guide (Pub. No. MAN0016084, Invitrogen). Conditions were optimized for the Kv7.2/7.3 cell line.
Cell Line: The hKV7.2/7.3 cell line was obtained from Chantest (cat. #CT6147).
Cell Culture: Kv7.2/7.3 cells were maintained in a media containing DMEM/F12; 50/50 (Fisher 11-330), 10% Fetal Bovine Serum (FBS) (Fisher 26-140), 100 units/mL Penicillin-Streptomycin (Fisher 15-140), 0.005 mg/ml Blasticidin (InvivoGen ant-bl-1), 0.5 mg/mL Geneticin (InvivoGen ant-gn-5), and 0.1 mg/mL Zeocin (Fisher R25001). One day prior to experimentation, cells were plated in 96 well clear bottom plates (Corning cat. #353219) in a media without Blasticidin, Geneticin, or Zeocin. In this cell line Kv7.3 channel expression is controlled by a constitutive promoter. Kv7.2 channel expression was induced by adding tetracycline (Sigma T7660) at a final concentration of 10 ng/mL overnight in a cell culture incubator at 37° C. and 5% CO2. On the day of assay, the cell culture medium in the 96-well plates was replaced by assay buffer containing the thallium-sensitive fluorescent sensor, FluxOR II Green prepared according to manufacturer's instructions. The 96-well plates were then incubated for 1 h at 37° C. Following the incubation, the FluxOR II Green-containing solution was replaced with extracellular solution.
Test Compound Plates: The test compound is diluted in a mixture of 0.1% DMSO/extracellular solution at a single concentration of 10 μM. Dilutions were made on a Biomek NXP (BECKMAN COULTER). Extracellular solution contained (in mM: 145 NaCl, 4 KCl, 2 CaCl2), 1 MgCl2, 10 HEPES, and 10 Glucose, pH 7.4).
Measurement and data analysis: Thallium-flux-mediated changes in intracellular fluorescence were made using a plate reader (Enspire, Perkin Elmer) set with an excitation wavelength of 475 nm and an emission wavelength of 530 nm. After a 15 sec baseline measurement, the stimulus buffer containing thallium and potassium was added to the 96-well plate containing FluxOR II Green-loaded cells and test compounds. Fluorescence values at 90 sec were normalized to the positive control (retigabine, 30 μM) and test compound activities were assigned categories according to the formula: “No Activity <0.15, “+” Moderate Activity 0.15-0.7, and “++” High Activity >0.7.
For `CCn1nc(NC(=O)c2ccc(F)c(F)c2)c(C2CC2)c1C` [Compound 11, N-(4-cyclopropyl-1-ethyl-5-methyl-1H-pyrazol-3-yl)-3,4-difluorobenzamide], the “Kv7.2/7.3 Activity” value is “− (“−” No Activity < 0.15)”. The value for `Cn1nc(NC(=O)C[C@H]2CC(F)(F)C2(F)F)c(C2CCC2)c1-c1cccc(C(C)(C)O)c1` [Compound 48, (S)-N-(4-cyclobutyl-5-(3-(2-hydroxypropan-2-yl)phenyl)-1-methyl-1H-pyrazol-3-yl)-2-(2,2,3,3-tetrafluorocyclobutyl)acetamide] was “+ (“+” Moderate Activity 0.15-0.7)”; that for `Cn1nc(NC(=O)c2ccccc2)c(C2CCC2)c1-c1ccc(F)cc1` [Compound 197, N-(4-cyclobutyl-5-(4-fluorophenyl)-1-methyl-1H-pyrazol-3-yl)benzamide] was “++ (“++” High Activity ≥ 0.7)”; that for `CC(C)c1c(NC(=O)C[C@H]2CC(F)(F)C2(F)F)nn(C)c1-c1ccc(OC(F)(F)F)cc1` [Compound 25, (S)-N-(4-isopropyl-1-methyl-5-(4-(trifluoromethoxy)phenyl)-1H-pyrazol-3-yl)-2-(2,2,3,3-tetrafluorocyclobutyl)acetamide] was “++ (“++” High Activity ≥ 0.7)”. Consider `CO[C@@H](CC(=O)Nc1nn(C)c(-c2ccc(Cl)s2)c1C1CCC1)C(F)(F)F` [Compound 233, (S)-N-(5-(5-chlorothiophen-2-yl)-4-cyclobutyl-1-methyl-1H-pyrazol-3-yl)-4,4,4-trifluoro-3-methoxybutanamide], for which the “Kv7.2/7.3 Activity” value was “++ (“++” High Activity ≥ 0.7)”. The value for `O=C(C[C@@H]1CC(F)(F)C1(F)F)Nc1nn(CCO)c(-c2ccc(F)cc2)c1C1CCC1` [Compound 58, (R)-N-(4-cyclobutyl-5-(4-fluorophenyl)-1-(2-hydroxyethyl)-1H-pyrazol-3-yl)-2-(2,2,3,3-tetrafluorocyclobutyl)acetamide] was “++ (“++” High Activity ≥ 0.7)”; that for `Cn1nc(NC(=O)CC2CC(F)(F)C2)c(C2CCC2)c1-c1ccccc1F` [Compound 106, N-(4-cyclobutyl-5-(2-fluorophenyl)-1-methyl-1H-pyrazol-3-yl)-2-(3,3-difluorocyclobutyl)acetamide] was “++ (“++” High Activity ≥ 0.7)”. The value for `Cn1nc(NC(=O)CC2(C(F)(F)F)CC2)c(C2CCC2)c1-c1ccccc1F` [Compound 105, N-(4-cyclobutyl-5-(2-fluorophenyl)-1-methyl-1H-pyrazol-3-yl)-2-(1-(trifluoromethyl)cyclopropyl)acetamide] was “++ (“++” High Activity ≥ 0.7)”; that for `Cn1nc(NC(=O)CC2CC(F)(F)C2)c(C2CCC2)c1-c1ccc(Cl)s1` [Compound 218, N-(5-(5-chlorothiophen-2-yl)-4-cyclobutyl-1-methyl-1H-pyrazol-3-yl)-2-(3,3-difluorocyclobutyl)acetamide] was “++ (“++” High Activity ≥ 0.7)”. Consider `Cc1c(C2CCC2)c(NC(=O)Cc2cc(F)cc(F)c2)nn1C` [Compound 1, N-(4-cyclobutyl-1,5-dimethyl-1H-pyrazol-3-yl)-2-(3,5-difluorophenyl)acetamide], for which the “Kv7.2/7.3 Activity” value is given as “+ (“+” Moderate Activity 0.15-0.7)”. The value for `Cn1nc(NC(=O)[C@H]2C[C@H](C)C2)c(C2CCC2)c1-c1ccc(F)cc1` [Compound 123, (1R,3R)-N-(4-cyclobutyl-5-(4-fluorophenyl)-1-methyl-1H-pyrazol-3-yl)-3-methylcyclobutane-1-carboxamide] was “++ (“++” High Activity ≥ 0.7)”; that for `Cn1nc(NC(=O)C2(C)CC(F)(F)C2)c(C2CCC2)c1-c1ccc(F)cc1` [Compound 199, N-(4-cyclobutyl-5-(4-fluorophenyl)-1-methyl-1H-pyrazol-3-yl)-3,3-difluoro-1-methylcyclobutane-1-carboxamide] was “++ (“++” High Activity ≥ 0.7)”.

For the compound `Cc1nnc(-c2c(C3CCC3)c(NC(=O)CC3CC(F)(F)C3)nn2C)s1` [Compound 239, N-(4-cyclobutyl-1-methyl-5-(5-methyl-1,3,4-thiadiazol-2-yl)-1H-pyrazol-3-yl)-2-(3,3-difluorocyclobutyl)acetamide], the “Kv7.2/7.3 Activity” value is on record as “− (“−” No Activity < 0.15)”. The value for `COC1(CC(=O)Nc2nn(C)c(-c3ccc(F)c(F)c3)c2C2CCC2)CCC1` [Compound 216, N-(4-cyclobutyl-5-(3,4-difluorophenyl)-1-methyl-1H-pyrazol-3-yl)-2-(1-methoxycyclobutyl)acetamide] was “++ (“++” High Activity ≥ 0.7)”; that for `Cc1nnsc1-c1c(C2CCC2)c(NC(=O)C2CC(F)(F)C2)nn1C` [Compound 225, N-(4-cyclobutyl-1-methyl-5-(4-methyl-1,2,3-thiadiazol-5-yl)-1H-pyrazol-3-yl)-3,3-difluorocyclobutane-1-carboxamide] was “+ (“+” Moderate Activity 0.15-0.7)”; that for `Cn1nc(NC(=O)[C@@H]2C[C@@H]2F)c(C2CCC2)c1-c1ccc(F)cc1` [Compound 253, (1S,2S)-N-(4-cyclobutyl-5-(4-fluorophenyl)-1-methyl-1H-pyrazol-3-yl)-2-fluorocyclopropane-1-carboxamide] was “− (“−” No Activity < 0.15)”. Take `Cn1nc(NC(=O)CC(C)(C)C(F)(F)F)c(C2CCC2)c1-c1ccccc1` [Compound 13, N-(4-cyclobutyl-1-methyl-5-phenyl-1H-pyrazol-3-yl)-4,4,4-trifluoro-3,3-dimethylbutanamide]: the “Kv7.2/7.3 Activity” value was “++ (“++” High Activity ≥ 0.7)”.

For the compound `Cn1nc(NC(=O)C[C@H]2CC2(F)F)c(C2CCC2)c1-c1ccc(F)cc1` [Compound 99, (S)-N-(4-cyclobutyl-5-(4-fluorophenyl)-1-methyl-1H-pyrazol-3-yl)-2-(2,2-difluorocyclopropyl)acetamide], the “Kv7.2/7.3 Activity” value is “++ (“++” High Activity ≥ 0.7)”. On to `Cn1nc(NC(=O)[C@H]2C[C@]2(C)C(F)(F)F)c(C2CCC2)c1-c1ccc(F)cc1` [Compound 144, (1S,2S)-N-(4-cyclobutyl-5-(4-fluorophenyl)-1-methyl-1H-pyrazol-3-yl)-2-methyl-2-(trifluoromethyl)cyclopropane-1-carboxamide], for which the “Kv7.2/7.3 Activity” value is recorded as “++ (“++” High Activity ≥ 0.7)”. The value for `Cn1nc(NC(=O)C2CC(F)(F)C2)c(C2CCC2)c1-c1cnc(C(F)(F)F)s1` [Compound 195, N-(4-cyclobutyl-1-methyl-5-(2-(trifluoromethyl)thiazol-5-yl)-1H-pyrazol-3-yl)-3,3-difluorocyclobutane-1-carboxamide] was “+ (“+” Moderate Activity 0.15-0.7)”; that for `Cn1nc(NC(=O)CC2CC(F)(F)C2)c(C2CCC2)c1-c1ccc(Cl)cc1` [Compound 222, N-(5-(4-chlorophenyl)-4-cyclobutyl-1-methyl-1H-pyrazol-3-yl)-2-(3,3-difluorocyclobutyl)acetamide] was “++ (“++” High Activity ≥ 0.7)”; that for `Cn1nc(NC(=O)CC(C(F)(F)F)C(F)(F)F)c(C2CCC2)c1-c1ccc(F)cc1` [Compound 109, N-(4-cyclobutyl-5-(4-fluorophenyl)-1-methyl-1H-pyrazol-3-yl)-4,4,4-trifluoro-3-(trifluoromethyl)butanamide] was “++ (“++” High Activity ≥ 0.7)”. The value for `Cn1nc(NC(=O)C2CC(F)(F)C2)c(C2CCC2)c1C1COC1` [Compound 282, N-(4-cyclobutyl-1-methyl-5-(oxetan-3-yl)-1H-pyrazol-3-yl)-3,3-difluorocyclobutane-1-carboxamide] was “− (“−” No Activity < 0.15)”; that for `Cn1nc(NC(=O)C[C@H]2CC(F)(F)C2(F)F)c(C2CCC2)c1CCc1ccccc1` [Compound 62, (S)-N-(4-cyclobutyl-1-methyl-5-phenethyl-1H-pyrazol-3-yl)-2-(2,2,3,3-tetrafluorocyclobutyl)acetamide] was “++ (“++” High Activity ≥ 0.7)”. The value for `Cn1nc(NC(=O)OC2CC(F)(F)C2)c(C2CCC2)c1-c1ccc(Cl)c(F)c1` [Compound 260, 3,3-difluorocyclobutyl (5-(4-chloro-3-fluorophenyl)-4-cyclobutyl-1-methyl-1H-pyrazol-3-yl)carbamate] was “++ (“++” High Activity ≥ 0.7)”; that for `Cc1c(C2CCC2)c(NC(=O)CC2(C(F)(F)F)CC2)nn1Cc1ccc(F)cc1` [Compound 95, N-(4-cyclobutyl-1-(4-fluorobenzyl)-5-methyl-1H-pyrazol-3-yl)-2-(1-(trifluoromethyl)cyclopropyl)acetamide] was “− (“−” No Activity < 0.15)”.
